# Test results reported in US20250313575A1, “MACROCYCLES AS LRRK2 INHIBITORS, PHARMACEUTICAL COMPOSITIONS, AND USES THEREOF” (Merck Sharp & Dohme LLC, priority 2022, published 2025).
# Molecular target: GST-tagged truncated human mutant G2019S LRRK2 (Homo sapiens (Human), UniProt Q5S007, G2019S)
# Test: LRRK2 G2019S Km ATP LanthaScreen assay
# Assay type: biochemical
# Details: G2019S LRRK2, 134 μM ATP (Km ATP), LRRKtide substrate
# Outline: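 TR-FRET assay with GST-tagged truncated human G2019S LRRK2 (1.25 nM), preincubated with compound 15 min, then reacted with fluorescein-LRRKtide and 134 μM ATP (Km) in Tris pH 8.5 buffer, 90 min, ambient temperature. Tb-anti-phospho-LRRKtide detection, 520/495 nm ratio; IC50 by 4-parameter logistic fit, top concentration 9.99 μM in DMSO, 10 points.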
# GST-tagged truncated human mutant G2019S LRRK2, sequence (Q5S007 970-2527 G2019S): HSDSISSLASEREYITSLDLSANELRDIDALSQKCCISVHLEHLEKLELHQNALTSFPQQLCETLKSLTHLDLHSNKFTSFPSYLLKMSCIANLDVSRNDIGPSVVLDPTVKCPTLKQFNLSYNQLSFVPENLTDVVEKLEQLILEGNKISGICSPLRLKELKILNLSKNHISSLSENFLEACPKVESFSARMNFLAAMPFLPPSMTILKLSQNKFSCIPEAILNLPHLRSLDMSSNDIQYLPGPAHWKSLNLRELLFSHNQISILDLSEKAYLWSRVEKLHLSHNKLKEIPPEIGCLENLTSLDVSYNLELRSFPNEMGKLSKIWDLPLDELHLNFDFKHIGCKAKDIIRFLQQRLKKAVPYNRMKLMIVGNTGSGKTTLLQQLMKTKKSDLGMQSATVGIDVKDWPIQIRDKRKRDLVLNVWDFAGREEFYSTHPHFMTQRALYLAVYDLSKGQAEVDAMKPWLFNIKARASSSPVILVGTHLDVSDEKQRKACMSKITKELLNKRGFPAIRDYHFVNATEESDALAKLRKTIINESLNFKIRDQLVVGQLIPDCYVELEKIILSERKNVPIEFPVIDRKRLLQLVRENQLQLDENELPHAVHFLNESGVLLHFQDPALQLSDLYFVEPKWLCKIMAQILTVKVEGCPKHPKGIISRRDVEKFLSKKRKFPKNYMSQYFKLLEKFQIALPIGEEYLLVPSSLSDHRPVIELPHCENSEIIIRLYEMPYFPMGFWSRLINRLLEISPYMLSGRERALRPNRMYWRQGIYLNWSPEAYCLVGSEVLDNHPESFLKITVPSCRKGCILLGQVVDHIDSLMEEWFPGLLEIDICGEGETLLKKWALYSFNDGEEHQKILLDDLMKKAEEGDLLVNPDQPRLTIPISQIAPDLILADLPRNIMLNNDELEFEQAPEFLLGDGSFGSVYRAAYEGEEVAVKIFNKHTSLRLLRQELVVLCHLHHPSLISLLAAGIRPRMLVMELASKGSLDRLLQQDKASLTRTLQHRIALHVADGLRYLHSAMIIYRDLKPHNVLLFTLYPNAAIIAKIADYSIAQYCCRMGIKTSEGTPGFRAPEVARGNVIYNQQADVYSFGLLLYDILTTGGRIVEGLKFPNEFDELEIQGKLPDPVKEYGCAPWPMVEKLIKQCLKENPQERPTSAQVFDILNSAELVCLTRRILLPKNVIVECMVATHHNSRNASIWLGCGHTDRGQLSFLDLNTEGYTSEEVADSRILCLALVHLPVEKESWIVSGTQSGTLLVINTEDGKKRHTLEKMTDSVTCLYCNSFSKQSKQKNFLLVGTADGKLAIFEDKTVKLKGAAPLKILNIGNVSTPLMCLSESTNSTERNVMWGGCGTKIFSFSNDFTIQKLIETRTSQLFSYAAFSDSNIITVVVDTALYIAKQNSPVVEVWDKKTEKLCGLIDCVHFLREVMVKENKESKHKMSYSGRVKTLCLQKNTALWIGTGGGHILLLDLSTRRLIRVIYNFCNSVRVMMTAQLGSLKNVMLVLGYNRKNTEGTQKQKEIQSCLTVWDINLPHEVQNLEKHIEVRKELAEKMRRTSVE
row,Compound,LRRK2 pIC50
1,"COC(=O)C(C)(C)n1nc(C)c2c1OCC[C@@H](C)Nc1nc(ncc1C(F)(F)F)N2 [Ex-1.5, methyl (R)-2-(3,11-dimethyl-8-(trifluoromethyl)-10,11,12,13-tetrahydro-5,9-(azeno)pyrazolo[3,4-b][1]oxa[4,6,10]triazacyclotridecin-1(4H)-yl)-2-methylpropanoate]",8.73
2,"Cn1nc(C2CC2)c2c1OCC1COCC1Nc1nc(ncc1C(F)(F)F)N2 [Ex-1.6, (10aS,13aS)- or (10aR,13aR)-3-cyclopropyl-1-methyl-8-(trifluoromethyl)-1,4,10a,11,13a,14-hexahydro-10H,13H-5,9-(azeno)furo[3,4-k]pyrazolo[3,4-b][1]oxa[4,6,10]triazacyclotridecine]",6.92
3,"Cn1nc(C2CC2)c2c1OCC1COCC1Nc1nc(ncc1C(F)(F)F)N2 [Ex-1.7, (10aS,13aS)- or (10aR,13aR)-3-cyclopropyl-1-methyl-8-(trifluoromethyl)-1,4,10a,11,13a,14-hexahydro-10H,13H-5,9-(azeno)furo[3,4-k]pyrazolo[3,4-b][1]oxa[4,6,10]triazacyclotridecine]",>10.09
4,"Cn1nc(C2CC2)c2c1OCC1CCC1Nc1nc(ncc1C(F)(F)F)N2 [Ex-1.8, (10aR,12aS)- or (10aS,12aR)-3-cyclopropyl-1-methyl-8-(trifluoromethyl)-1,4,10,10a,11,12,12a,13-octahydro-5,9-(azeno)cyclobuta[k]pyrazolo-[3,4-b][1]oxa[4,6,10]triazacyclo-tridecine]",5.94
5,"Cn1nc(C2CC2)c2c1OCC1CCC1Nc1nc(ncc1C(F)(F)F)N2 [Ex-1.9, (10aR,12aS)- or (10aS,12aR)-3-cyclopropyl-1-methyl-8-(trifluoromethyl)-1,4,10,10a,11,12,12a,13-octahydro-5,9-(azeno)cyclobuta[k]pyrazolo-[3,4-b][1]oxa[4,6,10]triazacyclo-tridecine]",>10.09
6,"Cn1nc(C2CC2)c2c1OCC1CCC1Nc1nc(ncc1C(F)(F)F)N2 [Ex-1.10, (10aR,12aR)- or (10aS,12aS)-3-cyclopropyl-1-methyl-8-(trifluoromethyl)-1,4,10,10a,11,12,12a,13-octahydro-5,9-(azeno)cyclobuta[k]pyrazolo-[3,4-b][1]oxa[4,6,10]triazacyclo-tridecine]",6.58
7,"Cn1nc(C2CC2)c2c1OCC1CCC1Nc1nc(ncc1C(F)(F)F)N2 [Ex-1.11, (10aR,12aR)- or (10aS,12aS)-3-cyclopropyl-1-methyl-8-(trifluoromethyl)-1,4,10,10a,11,12,- 12a,13-octahydro-5,9-(azeno)cyclobuta[k]pyrazolo[3,4-b][1]oxa[4,6,10]triazacyclotridecine]",>10.09
8,"CCOC(=O)C(C)(C)n1nc(C(C)C)c2c1OCC[C@@H](C)Nc1nc(ncc1C(F)(F)F)N2 [Ex-1.12, ethyl (R)-2-(3-isopropyl-11-methyl-8-(trifluoromethyl)-10,11,12,13-tetrahydro-5,9-(azeno)pyrazolo[3,4-b][1]oxa[4,6,10]triazacyclotridecin-1(4H)-yl)-2-methylpropanoate]",<5.00
9,"Cn1nc(C(F)(F)F)c2c1OC[C@@H]1COC[C@H]1Nc1nc(ncc1Cl)N2 [Ex-1.13, (10aS,13aS)-8-chloro-1-methyl-3-(trifluoromethyl)-1,4,10a,11,13a,14-hexahydro-10H,13H-5,9-(azeno)furo[3,4-k]pyrazolo[3,4-b][1]oxa[4,6,10]triazacyclotridecine]",7.99
10,"CC(C)c1nn(C(C)(C)C#N)c2c1Nc1ncc(C(F)(F)F)c(n1)N[C@@H]1COC[C@H]1CO2 [Ex-1.14, 2-((10aS,13aS)-3-isopropyl-8-(trifluoromethyl)-10a,11,13a,14-tetrahydro-10H,13H-5,9-(azeno)furo[3,4-k]pyrazolo[3,4-b][1]oxa[4,6,10]triazacyclotridecin-1(4H)-yl)-2-methylpropanenitrile]",8.66
